# Measurements from patent US20230167170A1, “COMPOSITIONS COMPRISING ANTI-VEGF AND NANOPARTICLES AND METHODS OF USING THE SAME FOR THE TREATMENT OF ABNORMAL OR EXCESSIVE ANGIOGENESIS” (Cellviva, LLC, priority 2020, published 2023).
# Tested on: pyogenic granuloma lesion
# Assay: Treatment of pyogenic granuloma after pterygiectomy and amniotic membrane graft with bevacizumab combination therapy (patient cases)
# Assay type: in vivo, human
# Procedure: A topical anesthetic (proparacaine 0.5% eye drops or Alcaine manufactured by Alcon Laboratories, Inc.) was applied to the eye following recent pterygiectomy and amniotic membrane graft surgery. The patients were examined to identify any abnormal grown on the eye. […] A syringe containing approximately 0.05 mL of bevacizumab ([…]) was injected into the eye and the plunger was drawn back to determine if blood was present in the syringe hub. […] Bevacizumab was then injected into the pyogenic granuloma lesion and/or in areas adjacent to the lesion where blood vessels were dilated and numerous. If bleeding occurred (e.g., in the form of subconjunctival or subcutaneous hematoma), tamponade with Q-tips was performed until bleeding stopped; then injection was resumed. The anti-inflammatory steroid drug and/or NSAID were administered either before or after the bevacizumab injection. The anti-inflammatory steroid drug and/or NSAID were administered by injection and/or via eye drops. If the anti-inflammatory steroid drug and/or NSAID was administered by injection, it was done following a similar process as described above for the bevacizumab injection. A syringe containing approximately 0.03 mL triamcinolone injection (40 mg/mL) was injected into the pyogenic granuloma lesion and the plunger was drawn back to determine if blood was present in the syringe hub. […] The anti-inflammatory steroid drug or NSAID was injected into the pyogenic granuloma lesion and/or in areas adjacent to the lesion where blood vessels were dilated and numerous. If bleeding occurred (e.g., in the form of subconjunctival or subcutaneous hematoma), tamponade with Q-tips was performed until bleeding stopped; then injection was resumed. If the anti-inflammatory steroid drug or NSAID was delivered by eyedrops, the steroid eye drops were given for approximately 6 weeks 1 to 4 times a day (every 6 hours) or once every hour (24 drops/day). NSAID eye drops were given 4 times a day every 6 hours for 3 to 6 months. Patients were followed up with to monitor for appearance of new pyogenic granuloma. The presence of new pyogenic granuloma was an indication for further treatment (e.g. with injection and/or eye drops). In some cases, during the first surgery to remove pterygium, the pterygium was only partially removed to prevent necrosis). Thus, in some patients, additional surgeries were subsequently performed to remove remaining sections of the pterygium, resulting in additional pyogenic granuloma. Two patients (Patients 1 and 2) underwent surgery to remove primary pterygium (pterygiectomy) from the cornea of one or both eyes followed by amniotic membrane graft surgery and were treated as described below.
# [1] = Patient 2, left eye, 1-month follow-up visit, triamcinolone day 98, bevacizumab day 100
substance,measurement,setting,value
bevacizumab,resolution of pyogenic granuloma,"Patient 1, right eye, 30 days after day 104, triamcinolone day 90, bevacizumab day 97",completely resolved
same,pyogenic granuloma size,"Patient 1, right eye, day 104 after surgery, triamcinolone 0.03 mL (40 mg/mL) day 90, then bevacizumab 0.05 mL (1.25 mg/mL) day 97, both into the lesion",considerably smaller in circumference
same,hyperemia of pyogenic granuloma,"Patient 1, right eye, day 104 after surgery, triamcinolone day 90, bevacizumab day 97",no evidence of hyperemia
same,"pyogenic granuloma lesions, stated conclusion","Patient 1, combination therapy of bevacizumab and an anti-inflammatory steroid (injected)",inhibited
same,recurrence of pyogenic granuloma,[1],no evidence of recurrence
same,resolution of pyogenic granuloma,[1],completely resolved
same,pyogenic granuloma size,"Patient 2, left eye, within two weeks of bevacizumab injection, triamcinolone 0.03 mL (40 mg/mL) day 98, bevacizumab 0.05 mL (1.25 mg/mL) day 100",significantly smaller
same,erythema of pyogenic granuloma,"Patient 2, left eye, within two weeks of bevacizumab injection, triamcinolone day 98, bevacizumab day 100",less erythematous
same,"pyogenic granuloma lesions, stated conclusion","Patient 2, combination therapy of bevacizumab and an anti-inflammatory steroid (injected or topical)",inhibited
same,resolution of pyogenic granuloma,"Patient 3, right eye, day 86, triamcinolone 0.03 mL (40 mg/mL) day 60, bevacizumab 0.05 mL (1.25 mg/mL) day 68, FIG. 4",completely resolved
same,"pyogenic granuloma, stated conclusion","Patient 3, combination therapy of bevacizumab, an anti-inflammatory steroid (injected or topical) and a topical NSAID",eliminated
same,combination therapy compared with bevacizumab alone,"Patient 3, combination therapy of bevacizumab, anti-inflammatory steroid and topical NSAID",superior to treatment with bevacizumab alone
same,pyogenic granuloma lesion after steroid and anti-VEGF injection,"Patient's eye 18 days after injection of both Kenalog and bevacizumab, FIG. 4",significant reduction in the pyogenic granuloma lesion
